{"source": "patent EP2085082A1", "about": "“Treatment of cognitive decline” (Nutromnia S.R.L., priority 2008, dated 2009)", "format_in_all_cases": "in vivo", "key": {"Wistar rats [1]": {"system": "Wistar rats", "assay": "Morris water maze, place discrimination task, age-related cognitive decline", "conditions": "for Swimming time (choice accuracy, time to find the platform): pellets enriched with 5% dodecanedioic acid for 3 months", "experimental": "(§1) In order to evaluate the impact of a diet enriched with dicarboxylic acids on age-related cognitive decline, 20 Wistar rats of both sexes (half male and half female), 4 months old and 23 months old were used.\n(§2) Rats of the same sex were housed (2-3 per cage) in a colony room with a 12:12 light- dark cycle and ad libitum access to food and water. All behavioural testing occurred during the light phase of the light- dark cycle. Body weight was recorded twice a week.\n(§3) The rats were divided in two groups of 10. The rats of a group (treated group) were fed with pellets enriched with 5% dodecanedioic acid, the rats of the other group being the control group. The dietary supplementation was carried out for 3 months and in the last week of treatment both groups underwent some tasks in the Morris water maze in order to test their cognitive abilities.\n(§4) A large metal pool (180 cm in diameter) filled with opaque water and kept at a constant temperature 24 ± 1°C and a 10 cm platform were used in place discrimination and visual discrimination tasks. A straight plastic alley (10 × 70 cm) was placed in the large pool and used during the straight swim test to estimate swimming ability. A video-camera was used to record the different phases of the experiments.\n(§5) Each rat received 1 day of training with three sessions of five platform trials and one probe trial each and a random order of start positions. During the platform trials, the platform was submerged but accessible to the rat, whereas during the probe trials, the platform was collapsed at the bottom of the tank for variable intervals (from 10 to 40 sec) to test the subject's preference for the platform location. The collapsed platform was then returned to its raised position at the end of the probe trial to maintain the same response-reinforcement contingency as in the platform trials. The percentage of time spent in the correct quadrant, the choice accuracy [i.e. the time in seconds to find the platform], and the travelled distance or distance swum to find and climb on the platform [in centimeters] were measured. A a shorter time to find the platform indicate better performance. Higher scores for a percentage of time spent in the correct quadrant reflected better performance. Location of the platform and a set of spatial cues around the tank were changed between the testing periods.\n(§6) Data are reported as mean ± SD. Comparison between groups was made by repeated-measures ANOVA. Body weight was used as a covariance to adjust the significance of between-group differences in speed of swimming. P<0.05 was considered as significant."}, "Wistar rats [2]": {"system": "Wistar rats", "assay": "Morris water maze, repeated acquisition task, age-related cognitive decline", "conditions": "old Wistar rats, 5% dodecanedioic acid pellets for 3 months", "experimental": "as §1, §2, §3, §4\n(§7) The training started on the day after the place discrimination task and consisted of 1 day of training with two sessions of 9 trials each. During the first session, the set of extra maze cues, as well as the location of platform, was different from that on the previous place discrimination task. During the second session, the platform was moved to the new position, with the set of external cues remaining the same. Each session consisted of eight platform trials and one probe trial. The measures of platform and probe trials were the same as in the place discrimination task.\nas §6"}, "Goto-Kakizaki rats [3]": {"system": "Goto-Kakizaki rats", "assay": "Morris water maze, place discrimination task, diabetes-related cognitive decline", "conditions": "for Travelled distance / time of permanence in the correct quadrant / time to find the platform: Goto-Kakizaki rats", "experimental": "(§8) In order to evaluate the impact of a diet enriched with dicarboxylic acids on diabetes-related cognitive decline, 10 Wistar rats and 20 Goto-Kakizaki rats of both sexes (half male and half female), aged 4 months were used.\n(§9) Rats of the same sex were housed (2-3 per cage) in a colony room with a 12:12 light- dark cycle and ad libitum access to food and water. All behavioral testing occurred during the light phase of the light- dark cycle. Body weight was recorded twice a week.\n(§10) Ten Goto-Kakizaki rats (treated group) were selected at random from the initial group of 20 animals and were fed with pellets enriched with 5% dodecanedioic acid. The remaining ten Goto-Kakizaki rats formed the control group and received standard Purina chow. A group of ten Wistar rats was also fed with standard Purina chow, as second control group.\n(§11) The dietary supplementation was carried out for 1 month and in the last week of treatment the different groups underwent some tasks in the Morris water maze in order to test their cognitive abilities.\nas §4, §5, §6"}, "Goto-Kakizaki rats [4]": {"system": "Goto-Kakizaki rats", "assay": "Morris water maze, repeated acquisition task, diabetes-related cognitive decline", "conditions": "5% dodecanedioic acid pellets for 1 month", "experimental": "as §8, §9, §10, §11, §4, §7\nData are reported as mean ± SD. Comparison between groups was made by repeated-measures ANOVA. […]"}, "Goto-Kakizaki rats [5]": {"system": "Goto-Kakizaki rats", "assay": "Morris water maze, place discrimination task, diabetes-related cognitive decline", "conditions": "average value (mean ± SD, 10 rats), 5% dodecanedioic acid pellets for 1 month, listed as dodecanoic acid"}, "[6]": {"conditions": "administered orally, rats, overall conclusion"}, "[7]": {"conditions": "individual data per rat, old Wistar rats, 5% dodecanedioic acid pellets for 3 months"}, "[8]": {"conditions": "average value (mean ± SD, 10 rats)"}, "[9]": {"conditions": "average value (mean ± SD, 10 rats), 5% dodecanedioic acid pellets for 1 month"}, "[10]": {"conditions": "individual data per rat, 5% dodecanedioic acid pellets for 1 month"}}, "note": "Values joined by “and” are separate entries in the source; they are usually repeats but may differ in a detail not shown here. Identical values can stand only once."}
{"smiles": "O=C(O)CCCCCCCCCCC(=O)O", "note": "[C12, dodecanedioic acid]", "values": [{"measurement": "age-related decline in various cognitive functions", "setting": "Wistar rats [1]; [6]", "value": "ameliorates"}, {"measurement": "time in the correct quadrant", "setting": "Wistar rats [1]; average value (10 rats), old Wistar rats, 5% dodecanedioic acid pellets for 3 months", "value": "41,70%"}, {"measurement": "Travelled distance", "setting": "Wistar rats [1]; average value (mean ± SD, 10 rats), old Wistar rats, 5% dodecanedioic acid pellets for 3 months", "value": "409,50 cm"}, {"measurement": "Travelled distance", "setting": "Wistar rats [1]; average value (mean ± SD, 10 rats), old Wistar rats, 5% dodecanedioic acid pellets for 3 months, listed as dodecanoic acid", "value": "409.5± 98.6", "unit": "cm"}, {"measurement": "Swimming time (choice accuracy, time to find the platform)", "setting": "Wistar rats [1]; average value (mean ± SD, 10 rats), old Wistar rats", "value": "19,59 sec"}, {"measurement": "Swimming time (choice accuracy, time to find the platform)", "setting": "Wistar rats [1]; average value (mean ± SD, 10 rats), old Wistar rats, listed as dodecanedioic acid", "value": "19.6 ± 1.6", "unit": "s"}, {"measurement": "Swimming time", "setting": "Wistar rats [1]; individual data per rat, old Wistar rats fed pellets enriched with 5% dodecanedioic acid for 3 months", "value": "21,8 sec and 18 sec (3×) and 22 sec and 19 sec and 21 sec and 20 sec and 18,5 sec and 19,6 sec"}, {"measurement": "Travelled distance", "setting": "Wistar rats [1]; [7]", "value": "370 cm and 400 cm and 300 cm (2×) and 580 cm and 450 cm and 520 cm and 350 cm and 325 cm and 500 cm"}, {"measurement": "time in the correct quadrant", "setting": "Wistar rats [1]; [7]", "value": "35% (2×) and 50% and 45% and 40% and 42% and 44% and 48% and 37% and 41%"}, {"measurement": "time of permanence in the correct quadrant", "setting": "Wistar rats [1]; mean ± SD as given in text, old Wistar rats, 5% dodecanedioic acid pellets for 3 months", "value": "41.7±5.2", "unit": "% sec"}, {"measurement": "Travelled distance in repeated trials", "setting": "Wistar rats [2]; [8]", "value": "327,00 cm"}, {"measurement": "Travelled distance in repeated trials", "setting": "Wistar rats [2]; average value (mean ± SD, 10 rats), listed as dodecanedioic acid", "value": "327.0±80.4", "unit": "cm"}, {"measurement": "Travelled distance in repeated trials", "setting": "Wistar rats [2]; individual data per rat", "value": "400 cm and 300 cm (3×) and 200 cm and 350 cm and 410 cm and 260 cm and 470 cm and 280 cm"}, {"measurement": "diabetes-related decline in various cognitive functions", "setting": "Goto-Kakizaki rats [3]; [6]", "value": "ameliorates"}, {"measurement": "Travelled distance", "setting": "Goto-Kakizaki rats [3]; [9]", "value": "423,60 cm"}, {"measurement": "time of permanence in the correct quadrant", "setting": "Goto-Kakizaki rats [3]; [9]", "value": "44,00 sec"}, {"measurement": "time to find the platform", "setting": "Goto-Kakizaki rats [3]; [9]", "value": "23,24 sec"}, {"measurement": "time to find the platform", "setting": "Goto-Kakizaki rats [3]; average value (mean ± SD, 10 rats), 5% dodecanedioic acid pellets for 1 month, listed as dodecanedioic acid", "value": "23.24 ± 2.81", "unit": "s"}, {"measurement": "Travelled distance", "setting": "Goto-Kakizaki rats [3]; [10]", "value": "306 cm and 418 cm and 511 cm (2×) and 368 cm and 354 cm and 477 cm and 541 cm and 326 cm and 424 cm"}, {"measurement": "time of permanence in the correct quadrant", "setting": "Goto-Kakizaki rats [3]; [10]", "value": "41 sec (2×) and 49 sec and 50 sec and 46 sec and 39 sec and 47 sec and 45 sec and 44 sec and 38 sec"}, {"measurement": "time to find the platform", "setting": "Goto-Kakizaki rats [3]; individual data per rat, pellets enriched with 5% dodecanedioic acid for 1 month", "value": "18,4 sec and 22,6 sec and 23,4 sec and 25,9 sec and 27 sec and 24 sec and 22,1 sec and 23,5 sec and 26,2 sec and 19,3 sec"}, {"measurement": "REPEATED ACQUISITION TASK TRAVELLED DISTANCE", "setting": "Goto-Kakizaki rats [4]; [8]", "value": "374,10 cm"}, {"measurement": "REPEATED ACQUISITION TASK TRAVELLED DISTANCE", "setting": "Goto-Kakizaki rats [4]; average value (mean ± SD, 10 rats), listed as dodecanoic acid", "value": "374.1±78.23", "unit": "cm"}, {"measurement": "REPEATED ACQUISITION TASK TRAVELLED DISTANCE", "setting": "Goto-Kakizaki rats [4]; individual data per rat", "value": "403 cm and 300 cm (3×) and 370 cm and 359 cm and 291 cm and 444 cm and 498 cm and 476 cm"}, {"measurement": "Travelled distance", "setting": "Goto-Kakizaki rats [5]", "value": "423.6±83.82", "unit": "cm"}]}
